Reference: patent publication EP3349734B1, “USE OF SOLUBLE AND INSOLUBLE FRACTIONS OF A CYCLODEXTRIN POLYMER AND OF MIXTURES THEREOF AS AN EXCIPIENT IN A TABLET” (Université de Lille, priority 2015, dated 2017)

Tests used:
Assay type in all cases: physicochemical
[1] = Phase-solubility diagram of ibuprofène with cyclodextrins or soluble polymer fractions; settings: calculated from slope and So of the solubility diagram
Experimental: (§1) Les diagrammes de solubilité de plusieurs principes actifs ont été effectués en présence de cyclodextrines et de fractions solubles de polymères de cyclodextrine mentionnés à l'exemple 1.
(§2) Des solutions de concentration croissante de cyclodextrines et fractions solubles de polymères de cyclodextrine ont été préparées dans de l'eau ultrapure [0-70 g/L]. 10 mL de chacune des solutions ont été mis en présence d'un excès du principe actif (20 mg) sous agitation pendant 24 heures à température ambiante. Les solutions ont ensuite été filtrées avec une membrane en cellulose et en Nylon (0,45 µm; VWR International, USA) respectivement pour l'Ibuprofène et le Piroxicam. L'ibuprofène a été dosé par HPLC (Shimadzu LC-2010 HT Liquid Chromatography), la phase mobile de l'ibuprofène est un mélange acétonitrile/eau (60:40) avec un pH de 2,25, une colonne C18 a été utilisée. Le piroxicam a été dosé par spectrophotométrie UV-Vis à 356 nm (UV 1800 Shimadzu).
(§3) La constante de stabilité (K1:1) est utilisée pour comparer l'affinité de principes actifs pour différentes cyclodextrines ou dérivés. La solubilité totale de médicament (St) en solution aqueuse de cyclodextrine sera : [formula]
(§4) So = solubilité intrinsèque du médicament; [CD]1 = concentration totale en cyclodextrine dans le milieu aqueux
(§5) Une parcelle de St rapport [CD] t, selon l'équation (1), donnera une ligne droite avec une pente (K 1:1 So / (1 + K 1:1 So)) et une interception (Sint) égale à So. K 1:1 est calculée à partir de la pente et So : [formula]
Afin de pouvoir faire une comparaison directe entre cyclodextrine monomère et cyclodextrine polymérisée, les diagrammes de solubilité sont présentés en fonction de la concentration rapportée en gramme de monomère de cyclodextrine par litre. Tableau 3 : Solubilité de l'ibuprofène et constantes de complexation en présence des cyclodextrines ou de fractions solubles de polymères de cyclodextrine à 10 et 50 g/L en cyclodextrine. L'utilisation de cyclodextrines sous forme de monomères ne tombe pas sous l'étendue de la protection revendiquée.

[2] = Phase-solubility diagram of piroxicam with cyclodextrins or soluble polymer fractions; settings: calculated from slope and So of the solubility diagram
Experimental: as §1, §2, §3, §4, §5

[3] = Dissolution test of ibuprofène (Sotax USP 4, HCl pH = 1); settings: in 45 minutes, 500 mL HCl pH = 1, 37°C, 50 mL/min
Text: (§6) La dissolution de principes actifs à partir de comprimés selon l'invention, i.e. les comprimés formés à partir de fractions solubles de polymères de cyclodextrine, a été comparée à la dissolution de principes actifs à partir de comprimés formés à partir de cyclodextrines sous forme de monomères ainsi qu'à la dissolution du principe actif non compris dans une forme galénique.
(§7) La poudre contenant les cyclodextrines ou les fractions solubles de polymère de cyclodextrine et le principe actif a été obtenue par granulation humide comme détaillé dans l'exemple 4. Le ratio CD ou PolyCD / ibuprofène était de 90/10 et le ratio CD ou PolyCD / Piroxicam était de 60 / 40. Les essais de dissolution ont été réalisés dans un système Sotax® USP 4 (50 mL/min, 37°C) muni d'un détecteur UV. L'ibuprofène et le piroxicam ont été détectés à une longueur d'onde de 264 et 334 nm, respectivement.
(§8) Le milieu de dissolution est composé de 500 mL de HCl (pH = 1) dans le cas de l'ibuprofène, et de 500 mL de HCl (pH = 4) dans le cas du piroxicam. Des échantillons ont été prélevés toutes les 2 minutes pendant 1 h et analysés par un spectromètre UV-VIS (Perkin Elmer Lambda 25). Les courbes sont obtenues en pourcentage en divisant la quantité de principe actif libérée au cours du temps par la quantité de principe actif initiale.

[4] = Glass transition by DSC (Gordon-Taylor extrapolation of mannitol mixtures; quenched melt); settings: after melt-quench at 210°C, heating 5°C/min
Experimental: Les expériences de calorimétrie ont été réalisées avec la DSC Q200 de chez TA Instruments. Les échantillons ont été placés dans des creusets en aluminium ouverts et balayés avec de l'azote gazeux pur. L'instrument a été étalonné en température et en enthalpie en utilisant l'indium comme standard. […]
La figure 12 montre les thermogrammes des mélanges poly-βCD / mannitol enregistrés au chauffage (5°C/min). Ils présentent tous un saut de chaleur spécifique (Cp) caractéristique d'une transition vitreuse. Ce saut est unique, ce qui indique que les mélanges sont dans un état physique amorphe homogène. La température de transition vitreuse Tg (prise au point d'inflexion du saut) diminue lorsque la concentration en mannitol augmente ce qui montre l'effet plastifiant du mannitol sur la poly-βCD. L'évolution du Tg du mélange ave la concentration en mannitol (X) suit une loi de Gordon Taylor dont l'extrapolation à X = 0 permet d'estimer le Tg de la poly-βCD pure. On trouve Tg # 400°C. La transition vitreuse de la poly-βCD se situe donc à très haute température et bien au-dessus de sa température de dégradation thermique. Elle ne peut donc pas être observée directement en DSC. Une étude analogue menée avec la poly-MebCD révèle un comportement identique et une transition vitreuse proche de Tg = 317°C. […]

[5] = Dissolution test of piroxicam (Sotax USP 4, HCl pH = 4); settings: in 45 minutes; 500 mL HCl pH = 4, 37°C, 50 mL/min
Text: as §6, §7, §8

Compound	Constante de complexation K1:1 [1] [M⁻¹]	also measured
méthyl-β-cyclodextrine [MeβCD]	33	–
hydroxypropyl-β-cyclodextrine [HPβCD2]	45	Constante de complexation K1:1 [2]: 185 M⁻¹
hydroxypropyl-β-cyclodextrine [HPβCD1]	17	–
OC[C@H]1O[C@@H]2O[C@H]3[C@H](O)[C@@H](O)[C@@H](O[C@H]4[C@H](O)[C@@H](O)[C@@H](O[C@H]5[C@H](O)[C@@H](O)[C@@H](O[C@H]6[C@H](O)[C@@H](O)[C@@H](O[C@H]7[C@H](O)[C@@H](O)[C@@H](O[C@H]8[C@H](O)[C@@H](O)[C@@H](O[C@H]9[C@H](O)[C@@H](O)[C@@H](O[C@H]1[C@H](O)[C@H]2O)O[C@@H]9CO)O[C@@H]8CO)O[C@@H]7CO)O[C@@H]6CO)O[C@@H]5CO)O[C@@H]4CO)O[C@@H]3CO [γCD, γ-cyclodextrine]	1	Constante de complexation K1:1 [2]: 890 M⁻¹
hydroxypropyl-γ-cyclodextrine [HPγCD]	11	–
CC(C)Cc1ccc(C(C)C(=O)O)cc1 (stereo not shown) [ibuprofène, acide 2-[4-isobutylphényl]propanoique]	–	dissolution du principe actif [3]: 15%
CN1C(C(=O)Nc2ccccn2)=C(O)c2ccccc2S1(=O)=O [piroxicam, 1,1-dioxydede 4-hydroxy-2-méthyl-N-(2-pyridinyl)-2H-1,2-benzothiazine-3-carboxamide]	–	Tg (saut de chaleur spécifique) [4]: 65 °C; libération du piroxicam [5]: 10%
